In US10626095B2, “Cyanotriazole compounds” (OTSUKA PHARMACEUTICAL CO., LTD., priority 2013, dated 2020):

tested on: Zucker Diabetic Fatty (ZDF) rat; experiment: Meal load test in type 2 diabetic model rats (postprandial blood glucose); format: in vivo; design: unit not given here; conditions: ZDF rats fasted overnight, oral 30 mg/kg in 5% Arabia gum, blood glucose one hour after meal loading (50 kcal/kg)
Procedure: Effects on Type 2 Diabetes: Meal Load Test
To evaluate whether a cyanotriazol compound improves diabetes or not, especially related to postprandial blood glucose, meal load test was performed using one of type 2 diabetic model rats, the Zucker Diabetic Fatty (ZDF) rat (Charles river, Japan). About 24 animals fasted overnight (17 h) were taken blood samples from the tail veins, and measured blood glucose levels (Pre BG) and body weights (BW). Proper animals were selected and divided into […] (n=6) based on the Pre BG and BW using SAS Statistical Analysis System (SAS institute Japan Ltd. Release 9.1). The compounds to be tested (10 or 30 mg/kg body weight in 5% Arabia gum) or Arabia gum solution only (vehicle group) were orally administrated via gavage two hours prior to or just before meal loading (50 kcal/kg body weight). The meal suspension was prepared by mixing purified AIN-93G (Norsan Corp, Yokohama, Japan) and distilled water (2:3, w/v). One-hour after meal loading, blood glucose (BG1h) of each animal was measured. Effectiveness of each compound was shown by ? BG1h (BG1h difference between compound group and vehicle group). Although a set of 24 animals was used several times (from 13 weeks to 21 weeks of age), at least a one-week interval was placed from one to another test.

SMILES	BG1h (BG1h difference between compound group and vehicle group)
CC(OC(=O)OCC(C)(C)C(=O)O)n1nc(C#N)c(-c2cccc(/C=C/c3nccc(C(F)(F)F)n3)c2)n1 (centres unmarked) [Example 1816, 3-[1-(4-cyano-5-{3-[(E)-2-(4-trifluoromethyl-pyrimidin-2-yl)-vinyl]-phenyl}-2H-[1,2,3]triazol-2-yl)-ethoxycarbonyloxy]-2,2-dimethyl-propionic acid]	−45.5
CC(OC(=O)OCC(C)(C)C(=O)O)n1nc(C#N)c(-c2cc(Cl)cc(-c3ccc4c(c3)OC(F)(F)O4)c2)n1 (centres unmarked) [Example 1808, 3-(1-{4-[3-chloro-5-(2,2-difluoro-benzo[1,3]dioxol-5-yl)-phenyl]-5-cyano-2H-[1,2,3]triazol-2-yl}-ethoxycarbonyloxy)-2,2-dimethyl-propionic acid]	−76.0
CC(OC(=O)OCC(C)(C)C(=O)O)n1nc(C#N)c(-c2nc(-c3cccc(C(F)(F)F)c3)sc2Cl)n1 (centres unmarked) [Example 1817, 3-(1-{4-[5-chloro-2-(3-trifluoromethyl-phenyl)-thiazol-4-yl]-5-cyano-2H-[1,2,3]triazol-2-yl}-ethoxycarbonyloxy)-2,2-dimethyl-propionic acid]	−106.5
CC(OC(=O)OCC(C)(C)C(=O)O)n1nc(C#N)c(-c2cc(Cl)cc(-c3nccc(C(F)(F)F)n3)c2)n1 (centres unmarked) [Example 1810, 3-(1-{4-[3-chloro-5-(4-trifluoromethyl-pyrimidin-2-yl)-phenyl]-5-cyano-2H-[1,2,3]triazol-2-yl}-ethoxycarbonyloxy)-2,2-dimethyl-propionic acid]	−53.2
CCCC(=O)OCn1nc(C#N)c(-c2cc(Cl)cc(/C=C/c3cccc(C(F)(F)F)c3)c2)n1 [Example 1831]	−61.0
CC(OC(=O)OCC(C)(C)C(=O)O)n1nc(C#N)c(-c2csc(-c3ccc(Cl)cc3)n2)n1 (centres unmarked) [Example 1814]	−108.7
CC(OC(=O)OCC(C)(C)C(=O)O)n1nc(C#N)c(-c2cccc(/C=C/c3cc(C(F)(F)F)ccn3)c2)n1 (centres unmarked) [Example 1815, 3-[1-(4-cyano-5-{3-[(E)-2-(4-trifluoromethyl-pyridin-2-yl)-vinyl]-phenyl}-2H-[1,2,3]triazol-2-yl)-ethoxycarbonyloxy]-2,2-dimethyl-propionic acid]	−63.2
Cc1cc(-c2ccc(C(F)(F)F)nc2)cc(-c2nn(C(C)OC(=O)OCC(C)(C)C(=O)O)nc2C#N)c1 (centres unmarked) [Example 1825, 3-(1-{4-cyano-5-[3-methyl-5-(6-trifluoromethyl-pyridin-3-yl)-phenyl]-2H-[1,2,3]triazol-2-yl}-ethoxycarbonyloxy)-2,2-dimethyl-propionic acid]	−48.3
COc1cc(-c2cc(C(F)(F)F)ccn2)cc(-c2nn(C(C)OC(=O)OCC(C)(C)C(=O)O)nc2C#N)c1 (centres unmarked) [Example 1812, 3-(1-{4-cyano-5-[3-methoxy-5-(4-trifluoromethyl-pyridin-2-yl)-phenyl]-2H-[1,2,3]triazol-2-yl}-ethoxycarbonyloxy)-2,2-dimethyl-propionic acid]	−111.8
CC(=O)OCn1nc(C#N)c(-c2cc(Cl)cc(/C=C/c3cccc(C(F)(F)F)c3)c2)n1 [Example 1830, acetic acid 4-{3-chloro-5-[(E)-2-(3-trifluoromethylphenyl)vinyl]phenyl}-5-cyano-2H-[1,2,3]triazol-2-ylmethyl ester]	−52.5

tested on: NaCT-CHO (CHO cells stably expressing human NaCT); experiment: Assay of the citric acid cycle activation ([1,5-14C]-citric acid, diffusion of [14C]-CO2); format: cell-based; conditions: 1 hour incubation at 37° C. with [1,5-14C]-citric acid
Summary of the method: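 NaCT-CHO cells (pME-CHO empty-vector cells for non-specific counts) were incubated 1 h at 37 °C in Na+-containing HEPES-Tris pH 7.4 with compound plus an equal volume of 0.4 mM [1,5-14C]-citric acid solution. Residual cell radioactivity was counted, [14C]-CO2 diffusion was taken as (Total−R)/(Total−NS)×100%, and EC50 was derived by regression.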

SMILES	EC50 [nM]
COc1cc(OCc2cc(C(F)(F)F)ccc2C(F)(F)F)cc(-c2nn[nH]c2C#N)c1 [Example 62, 5-[3-(2,5-bis-trifluoromethyl-benzyloxy)-5-methoxy-phenyl]-3H-[1,2,3]triazole-4-carbonitrile]	600
N#Cc1[nH]nnc1-c1cc(CCc2cccc(C(F)(F)F)n2)cc(C(F)(F)F)c1 [Example 39, 5-{3-trifluoromethyl-5-[2-(6-trifluoromethyl-pyridin-2-yl)-ethyl]-phenyl}-3H-[1,2,3]triazole-4-carbonitrile]	710
N#Cc1[nH]nnc1-c1ccc(Oc2cccc(C(F)(F)F)c2)c(F)c1 [Example 72, 5-[3-fluoro-4-(3-trifluoromethyl-phenoxy)-phenyl]-3H-[1,2,3]triazole-4-carbonitrile]	300
CN(Cc1cc(C(F)(F)F)cc(C(F)(F)F)c1)c1cccc(-c2nn[nH]c2C#N)c1 [Example 58, 5-{3-[N-(3,5-bis-trifluoromethyl-benzyl)-N-methyl-amino]-phenyl}-3H-[1,2,3]triazole-4-carbonitrile]	720
N#Cc1[nH]nnc1-c1csc(-c2ccc(F)c(Cl)c2)n1 [Example 76, 5-[2-(3-chloro-4-fluoro-phenyl)-thiazol-4-yl]-3H-[1,2,3]triazole-4-carbonitrile]	590
Cc1sc(-c2cccc(C(F)(F)F)c2)nc1-c1nn[nH]c1C#N [Example 91, 5-[5-methyl-2-(3-trifluoromethyl-phenyl)-thiazol-4-yl]-3H-[1,2,3]triazole-4-carbonitrile]	700
Cc1nc(-c2ccc(Cl)cc2)sc1-c1nn[nH]c1C#N [Example 113, 5-[2-(4-chloro-phenyl)-4-methyl-thiazol-5-yl]-3H-[1,2,3]triazole-4-carbonitrile]	790
N#Cc1[nH]nnc1-c1cccc(/C=C/c2ccc(C(F)(F)F)cn2)c1 [Example 48, 5-{3-[(E)-2-(5-trifluoromethyl-pyridin-2-yl)-vinyl]-phenyl}-3H-[1,2,3]triazole-4-carbonitrile]	430
CN(Cc1cccc(-c2nn[nH]c2C#N)c1)c1ccc(F)cc1 [Example 54, 5-(3-{[N-(4-fluoro-phenyl)-N-methyl-amino]-methyl}-phenyl)-3H-[1,2,3]triazole-4-carbonitrile]	430
N#Cc1[nH]nnc1-c1csc(/C=C/c2cccc(C(F)(F)F)c2)n1 [Example 81, 5-{2-[(E)-2-(3-trifluoromethyl-phenyl)-vinyl]-thiazol-4-yl}-3H-[1,2,3]triazole-4-carbonitrile]	990
N#Cc1[nH]nnc1-c1cc(/C=C/c2cccc(C(F)(F)F)c2)co1 [Example 135, 5-{4-[(E)-2-(3-trifluoromethyl-phenyl)-vinyl]-furan-2-yl}-3H-[1,2,3]triazole-4-carbonitrile]	1570
N#Cc1[nH]nnc1-c1cc(-c2ccc(C(F)(F)F)nc2)cc(C2CC2)c1 [Example 12, 5-[3-cyclopropyl-5-(6-trifluoromethyl-pyridin-3-yl)-phenyl]-3H-[1,2,3]triazole-4-carbonitrile]	690
N#Cc1[nH]nnc1-c1nc(-c2ccc(Cl)cc2)sc1C1CC1 [Example 105, 5-[2-(4-chloro-phenyl)-5-cyclopropyl-thiazol-4-yl]-3H-[1,2,3]triazole-4-carbonitrile]	1910
N#Cc1[nH]nnc1-c1cc(OCc2cccc(C(F)(F)F)c2)cc(-c2ccc(C(F)(F)F)cn2)c1 [Example 20, 5-[3-(3-trifluoromethyl-benzyloxy)-5-(5-trifluoromethyl-pyridin-2-yl)-phenyl]-3H-[1,2,3]triazole-4-carbonitrile]	1620
N#Cc1[nH]nnc1-c1sc(-c2ccc(F)c(Cl)c2)nc1C(F)(F)F [Example 116, 5-[2-(3-chloro-4-fluoro-phenyl)-4-trifluoromethyl-thiazol-5-yl]-3H-[1,2,3]triazole-4-carbonitrile]	4130
CC(C)(C)c1cc(-c2ccc(C(F)(F)F)cn2)cc(-c2nn[nH]c2C#N)c1 [Example 13, 5-[3-tert-butyl-5-(5-trifluoromethyl-pyridin-2-yl)-phenyl]-3H-[1,2,3]triazole-4-carbonitrile]	870
N#Cc1[nH]nnc1CCc1ccccc1OCc1cc(C(F)(F)F)ccc1C(F)(F)F [Example 150, 5-{2-[2-(2,5-bis-trifluoromethyl-benzyloxy)-phenyl]-ethyl}-3H-[1,2,3]triazole-4-carbonitrile]	860
Cc1sc(-c2ccc(Cl)cc2)nc1-c1nn[nH]c1C#N [Example 89, 5-[2-(4-chloro-phenyl)-5-methyl-thiazol-4-yl]-3H-[1,2,3]triazole-4-carbonitrile]	760
CC(C)Cc1sc(-c2ccc(Cl)cc2)nc1-c1nn[nH]c1C#N [Example 106, 5-[2-(4-chloro-phenyl)-5-isobutyl-thiazol-4-yl]-3H-[1,2,3]triazole-4-carbonitrile]	840
CC(C)c1oc(-c2ccc(OC(F)(F)F)cc2)nc1-c1nn[nH]c1C#N [Example 124, 5-[5-isopropyl-2-(4-trifluoromethoxy-phenyl)-oxazol-4-yl]-3H-[1,2,3]triazole-4-carbonitrile]	920
N#Cc1[nH]nnc1-c1cccc(COCC2CCCCC2)c1 [Example 3, 5-(3-cyclohexylmethoxymethyl-phenyl)-3H-[1,2,3]triazole-4-carbonitrile]	260
N#Cc1[nH]nnc1-c1cc(C(F)(F)F)ccc1/C=C/c1ccccc1 [Example 6, 5-[2-((E)-styryl)-5-trifluoromethyl-phenyl]-3H-[1,2,3]triazole-4-carbonitrile]	400
